Source: US9239334B2, “Fatty acid C16: 1N7-palmitoleate a lipokine and biomarker for metabolic status” (PRESIDENT AND FELLOWS OF HARVARD COLLEGE, priority 2008, dated 2016)

Key:
[1] = test system: SCD-1 protein; test: Immunoblotting of Flag-tagged SCD-1 in hepatocytes; type: cell-based; settings: CMV promoter construct
Source text: FIG. 3F presents data from the immunoblotting of Flag-tagged SCD-1 in hepatocytes treated with control, palmitate and palmitoleate. Anti-tubulin blot was used as loading control. The observations reported herein also raised the possibility that C16:1n7-palmitoleate might be the lipid species responsible, at least in part, for the metabolic activities linked to adipose tissue FABPs. […] Because palmitoleate is nearly ten-times more abundant in the plasma of FABP^−/− mice than is AA (FIG. 2C), it is most likely accounts for the suppression of SCD-1 under physiologically relevant conditions. The effects of palmitoleate on the levels of SCD-1 protein, which is known to have a very short half-life (Heinemann & Ozols, 68 Prostaglandins Leukot. Essent. Fatty Acids 123-33 (2003)), were also examined. […] Maeda et al., 2005.

[2] = test system: MCP1, TNFalpha and IL6 expression in adipocyte fraction; test: Cytokine expression in adipocyte fraction of epididymal fat pads; type: cell-based, mice; settings: 500 μM for 2 hrs, compared to palmitate
Method: FIGS. 16A and 16B present cytokine expression in adipocyte and stromal vascular fractions treated with fatty acids. Epidydamal fat pads were dissected from WT mice and separated into adioycte and stromal vascular fractions as described in Experimental Procedures. Each fraction was treated with palmitate or palmitoleate at 500 μM for 2 hrs. Gene expression was determined with quantitative real-time PCR.
Obesity is associated with low-grade inflammation and increased inflammatory activities in liver and adipose tissues contribute to the development of systemic insulin resistance. Hotamisligil, 444 Nature 860-67 (2006). The effect of plasma lipids on adipose tissue inflammatory responses was explored using explants of adipose tissue treated with lipids from WT or FABP^−/− mice. […] Because adipose tissue contains multiple cell populations in addition to fat cells, adipose tissue was separated into adipocytes and stromal vascular fractions, and each fraction treated with either palmitate or palmitoleate.

[3] = Hyperinsulinemic-euglycemic clamp in palmitoleate-infused mice; type: in vivo
Source text: FIGS. 7A-7G show data on the regulation of insulin signaling and glucose metabolism by palmitoleate. FIG. 7A is the basal and insulin-stimulated phosphorylation of insulin receptor (IR), insulin receptor substrate-1 (IRS-1) and -2 (IRS-2) and AKT in liver of mice infused with vehicle (Veh), TG:palmitoleate (C16:1n7) or TG:palmitate (C16). Representative blots are shown and quantifications on the right are averaged results of three mice in each treatment group. […] Representative blots are shown and quantifications on the right are averaged results of three mice in each treatment group.
FIG. 7G is the regulation of systemic metabolic responses by adipose-derived lipid hormones (Lipokines). In parallel with a variety of adipokines, specific lipids released from adipocytes in response to physiological stimuli act at remote sites including liver and muscle and regulate systemic lipid and carbohydrate metabolism. Lipid chaperones negatively regulate one of these lipokines, C16:1n7 (palmitoleate), and in the absence of these FABPs, strong flux of palmitoleate from adipose tissue to liver and muscle results in improved metabolic responses.
To investigate whether the increased insulin signaling by elevated serum palmitoleate can be translated into improved glucose metabolism, hyperinsulinemic-euglycemic clamp studies were performed on mice infused with either vehicle or palmitoleate. To enable delivery of lipid at a rate that is compatible with clamp studies, fatty acid:palmitoleate was used instead of TG:palmitoleate. That palmitoleate enhanced both muscle and liver insulin signaling in this setting was confirmed by examining insulin stimulated activation of insulin receptor and AKT (FIG. 21). […] Instead, the increased glucose infusion rate in these mice was driven by enhanced whole body glucose metabolism (FIG. 7F), confirming that the increased insulin signaling by palmitoleate infusion can be directly reflected as improved glycemic control in conscious mice.
INTRALIPID® fatty acid lipid infusion solution with 2 mM triglycerides:palmitate or palmitoleate were prepared using a previously described protocol with modifications (Stein et al., 1997). Briefly, lipids were dissolved in a solvent containing 5% glycerol and 0.72% phosphocholine in 0.9% saline, heated at 80° C. for 10 min, and then sonicated 1 min four times. For TG:palmitoleate, the heating was omitted to avoid oxidization of the lipids. Lipids stay in suspension for a week, so to prevent clogging the preparations must be vortexed well before loading the syringe and tubing. […] Serum FFAs were determined using a commercial kit (Wako Chem.). […]

[4] = hyperinsulinemic-euglycemic clamp, vs vehicle

In the case of `CCCCCC/C=C\CCCCCCCC(=O)O` [palmitoleate, C16:1n7-palmitoleate], the “Flag-tagged SCD-1 protein level” value [1] is reported as “significantly increased SCD-1 protein degradation”, the “cytokine expression in adipocyte fractions” value [2] is reported as “suppressed” and the “glucose infusion rate to maintain euglycemia” value [3, 4] is reported as “significantly higher”. For the same compound, the “whole body glucose metabolism (glucose disposal rate)” value [3, 4] was “enhanced”, the “clamped hepatic glucose production” value ([3]; hyperinsulinemic-euglycemic clamp, vs vehicle controls) was “Neither basal nor clamped hepatic glucose production was significantly changed” and the “basal hepatic glucose production” value ([3]; vs vehicle controls) was “Neither basal nor clamped hepatic glucose production was significantly changed”.
